pEC50: −log10 of the molar value. A value given as a limit tells only on which side of the number the result lay.

This is an account of results in US20240218011A1, “GLUCOCORTICOID RECEPTOR AGONISTS AND CONJUGATES THEREOF” (FireFly Bio, Inc., priority 2022, published 2024).

Assay [1] deals with T1, Glucocorticoid Receptor (GR) (Homo sapiens, UniProt P04150).
T1 construct: A GAL4-responsive firefly luciferase reporter is the read-out; Some cells also express CD40, which is irrelevant for the free small molecules
T1 sequence (P04150 524-777 limits assumed): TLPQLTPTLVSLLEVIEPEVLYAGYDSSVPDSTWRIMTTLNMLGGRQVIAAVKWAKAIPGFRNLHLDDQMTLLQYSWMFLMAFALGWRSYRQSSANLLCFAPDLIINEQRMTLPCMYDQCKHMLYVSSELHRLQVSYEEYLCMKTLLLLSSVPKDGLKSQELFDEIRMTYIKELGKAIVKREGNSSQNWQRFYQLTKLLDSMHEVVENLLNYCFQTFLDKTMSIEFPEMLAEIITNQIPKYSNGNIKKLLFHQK
The experiment in a line: GR reporter assay (GR-GAL4 Reporter (Luc)-HEK293 cells, Steady-Glo luciferase). The format is cell-based. The note with it: 24 hours, read-out: GR reporter agonist. The procedure:
Certain GR agonist compounds of the present disclosure were tested in a GR reporter assay. Briefly, CD40 expressing GR-GAL4 Reporter (Luc)-HEK293 or parental GR-GAL4 reporter (Luc)-HEK293 cells were harvested from culture and seeded wells at a density of ˜30,000 cells per well in 45 μl of assay medium. Cells were incubated at 37° C. in a CO2 incubator overnight. […] The plates were incubated at 37° C. in a CO2 incubator for 24 hours. The Steady-Glo Luciferase Assay System (Promega), following manufacturer's instructions, was used to detect luminescence, which was measured using a luminometer.
The average background luminescence (cell-free control wells) was substracted from the luminescence reading of all wells. […] The EC50 value for each conjugate was determined in both CD40 expressing and parental GR-GAL4 Reporter (Luc)-HEK293 cells and the ratio was used to as a measure of linker stability and non-specific uptake.
(Reporter assays use an easily measured gene product as a stand-in for the process of interest.)

The subject of assay [2] is Human monocyte derived dendritic cells and allogeneic CD3+ T cells. The experiment in a line: Allo mixed lymphocyte assay (monocyte derived dendritic cells + allogeneic CD3+ T cells), cytokines by MSD ELISA. In kind it is cell-based. Particulars: 100 nM, 48 hrs co-culture, mean of duplicates. The procedure:
Human monocyte derived dendritic cells were derived in vitro from healthy human donor CD 14^+ monocytes, isolated from blood by standard cell marker negative selection with antibody coated beads, by culture of the monocytes under a standard dendritic cell generation protocol with added GM-CSF and IL4 for 6 days. […] Conjugates, protein, and small molecule controls were added at 100 nM immediately after. After 48 hrs of co-culture supernatants were collected from wells and cytokine levels for T cell derived cytokines (IL2, IFNγ) and dendritic cell derived cytokines (IL6, IL 12p40) were measured by MSD multiplex ELISA and plate reader per manufacturer's instructions (Meso Scale Diagnostics LLC).
Background: In an ELISA, binding on a coated surface is turned into a signal by an enzyme label.

For assay [3], the system named is antigen-driven (FITC) ear inflammation. The experiment in a line: FITC antigen-driven ear inflammation in mice (ear swelling). In kind it is in vivo, Balb/c mice. Particulars: 24 hours after FITC rechallenge, ip 20 mpk conjugate or antibody, 10 mpk dexamethasone. The procedure:
Female Balb/c mice aged 6-7 weeks (Envigo Labs) were used. On day 0 ear thickness was measured in all mice using microcalipers. On day 0 mice were then sensitized to the antigen fluorescsein isothiocyanate (FITC) on a shaved flank by application of 50 microliters of 1% FITC in a formulation of 50% acetone:50% dibutyl phthalate. […] After 24 hours ear thickness was determined on the treated ear. […] Animals were bled for serum and sacrificed on day 9. […] Ear thickness and ELISA results were analyzed for differences in means with GraphPad Prism software by one-way ANOVA with Dunnett's multiple comparisons.

Assay [4] has as its system parental GR-GAL4 Reporter (Luc)-HEK293 cell line (non-BAFF-expressing). The experiment in a line: GR-GAL4 luciferase reporter assay, parental reporter cell line (Anti-BAFF conjugates). The format is cell-based. The procedure:
(§1) To determine the level of GR agonism at the end of the incubation luciferase levels were determined with the Steady-Glo Luciferase Assay System (Promega, cat #E2520 or E2550). The results were analyzed with Graphpad Prism software v9.1 (Graphpad Inc) to determine EC50.
(§2) The memBAFF and parental GR-GAL4 luciferase cell reporter cell lines were plated in 96 well plates in complete DMEM media. […] To determine the level of GR agonism found for the different treatments, at the end of the incubation firefly luciferase was measured as per manufacturer's instructions with the Steady-Glo Luciferase Assay System (Promega, cat #E2520 or E2550) and then analyzed with Graphpad Prism software (Graphpad Inc v9.1) to determine EC50.

Assay [5] has as its system GR-GAL4 Reporter (Luc)-HEK293 cell line stably expressing membrane human BAFF (memBAFF). The experiment in a line: GR-GAL4 luciferase reporter assay, memBAFF reporter cell line. The format is cell-based. The procedure:
as §1, §2

On to `C[C@]12C=CC(=O)C=C1CC[C@H]1[C@@H]3C[C@H]4O[C@@H](c5sccc5F)O[C@@]4(C(=O)CO)[C@@]3(C)C[C@H](O)[C@@]12F` [Compound 52a], for which the pEC50 in assay [1] is 9.24.

In the case of `C[C@]12C=CC(=O)C=C1CC[C@@H]1[C@@H]2[C@@H](O)C[C@@]2(C)[C@H]1C[C@H]1O[C@@H](c3ccc(Cc4c[nH]nn4)cc3)O[C@]12C(=O)CO` [Compound 3], the pEC50 in assay [1] is 7.60.

Take `C[C@]12C=CC(=O)C=C1[C@@H](F)C[C@H]1[C@@H]3C[C@H]4O[C@@H](c5ccc(OCC(F)(F)CN)c(F)c5)O[C@@]4(C(=O)CO)[C@@]3(C)C[C@H](O)[C@@]12F` [Compound 19]: the pEC50 in assay [1] was 7.62.

`C[C@]12C=CC(=O)C=C1[C@@H](F)C[C@H]1[C@@H]3C[C@H]4O[C@@H](c5cccc(F)c5)O[C@@]4(C(=O)CN)[C@@]3(C)C[C@H](O)[C@@]12F` [Compound 16]: the pEC50 in assay [1] was 7.41.

On to `C[C@]12C=CC(=O)C=C1CC[C@H]1[C@@H]3C[C@H]4O[C@@H](C5CCC5)O[C@@]4(C(=O)CO)[C@@]3(C)C[C@H](O)[C@@]12F` [Compound 51], for which, in assay [1], the pEC50 is 8.92.

For the molecule belimumab [Anti-BAFF (belimumab)], in assay [2], the “IFNγ % Media” value was 140 % Media, the “IL2 % Media” value came out at 72 % Media and the “IL12p40 % Media” value came out at 139 % Media. For the same molecule, in assay [2] (LLOQ = lower limit of quantitation in the MSD assay), the “IL6 % Media” value came out at 121 % Media.

As for `C[C@]12C=CC(=O)C=C1CC[C@@H]1[C@@H]2[C@@H](O)C[C@@]2(C)[C@H]1C[C@H]1O[C@@H](c3ccc4c(c3)OCO4)O[C@]12C(=O)CO` [Compound 6], the pEC50 in assay [1] is 7.60.

`C[C@]12C=CC(=O)C=C1CC[C@@H]1[C@@H]2[C@@H](O)C[C@@]2(C)[C@H]1C[C@H]1O[C@@H](c3ccc4c(c3)OCCO4)O[C@]12C(=O)CO` [Compound 7]: in assay [1], the pEC50 was 7.33.

On to `C[C@]12C=CC(=O)C=C1[C@@H](F)C[C@H]1[C@@H]3C[C@H]4O[C@@H](C56CC(C5)C6)O[C@@]4(C(=O)CO)[C@@]3(C)C[C@H](O)[C@@]12F` [Compound 15], for which the pEC50 in assay [1] is 8.54.

`C[C@]12C=CC(=O)C=C1CC[C@@H]1[C@@H]2[C@@H](O)C[C@@]2(C)[C@H]1C[C@H]1O[C@@H](/C=C/C3CC3)O[C@]12C(=O)CO` [Compound 58]: the pEC50 in assay [1] is 7.49.

In the case of `C[C@]12C=CC(=O)C=C1[C@@H](F)C[C@H]1[C@@H]3C[C@H]4O[C@@H](C5CCC5)O[C@@]4(C(=O)CO)[C@@]3(C)C[C@H](O)[C@@]12F` [Compound 14], the pEC50 in assay [1] was 9.17.

On to `C[C@]12C=CC(=O)C=C1[C@@H](F)C[C@H]1[C@@H]3C[C@H]4O[C@@H](C5CC6(CCOCC6)C5)O[C@@]4(C(=O)CO)[C@@]3(C)C[C@H](O)[C@@]12F` [Compound 42], for which, in assay [1], the pEC50 is 8.05.

In the case of `Cn1cc([C@@H]2O[C@@H]3C[C@H]4[C@@H]5CCC6=CC(=O)C=C[C@]6(C)[C@H]5[C@@H](O)C[C@]4(C)[C@]3(C(=O)CO)O2)cn1` [Compound 5], in assay [1], the pEC50 was 7.31.

Turning to `C[C@]12C=CC(=O)C=C1CC[C@@H]1[C@@H]2[C@@H](O)C[C@@]2(C)[C@H]1C[C@H]1O[C@@H](/C=C/c3cccc(N)c3)O[C@]12C(=O)CO` [Compound 67], the pEC50 in assay [1] was 6.76.

With `CCCC1O[C@@H]2C[C@H]3[C@@H]4CCC5=CC(=O)C=C[C@]5(C)[C@H]4[C@@H](O)C[C@]3(C)[C@]2(C(=O)CO)O1` (stereo partly shown) [budesonide, reference compound], in assay [2], the “IFNγ % Media” value is given as 1 % Media, the “IL2 % Media” value is recorded as 14 % Media and the “IL12p40 % Media” value is 1 % Media.

Regarding `C[C@@H]1C[C@H]2[C@@H]3CCC4=CC(=O)C=C[C@]4(C)[C@@]3(F)[C@@H](O)C[C@]2(C)[C@@]1(O)C(=O)CO` [dexamethasone, reference compound], in assay [3], the “Mean Swelling (mm)” value was 0.07 mm.

Turning to `C[C@]12C=CC(=O)C=C1[C@@H](F)C[C@H]1[C@@H]3C[C@H]4O[C@@H](c5ccc(Oc6ccccc6)c(F)c5)O[C@@]4(C(=O)CO)[C@@]3(C)C[C@H](O)[C@@]12F` [Compound 18], the pEC50 in assay [1] was 8.92.

For the molecule `C[C@]12C=CC(=O)C=C1[C@@H](F)C[C@H]1[C@@H]3C[C@H]4O[C@@H](c5ccc(F)s5)O[C@@]4(C(=O)CO)[C@@]3(C)C[C@H](O)[C@@]12F` [Compound 27], the pEC50 in assay [1] is 9.34.

As for belimumab [BAFF mAb (belimumab)], the EC50 in assay [4] (Table 22, 24 hour incubation, * = low confidence in EC50 due to curve fit) was more than 500 nM; in assay [5] (Table 22, 24 hour incubation, * = low confidence in EC50 due to curve fit, read-out: EC50 (nM) Mem(BAFF) line), more than 500 nM. For the same molecule, the “GR agonism over the complete dilution series” value is listed as “no GR agonism” in assay [4] (parental line, 500 nM-[…]) and “no GR agonism” in assay [5] (memBAFF line, 500 nM-[…]).

Take `C[C@]12C=CC(=O)C=C1[C@@H](F)C[C@H]1[C@@H]3C[C@H]4O[C@@H](C#Cc5ccccc5)O[C@@]4(C(=O)CO)[C@@]3(C)C[C@H](O)[C@@]12F` [Compound 40]: the pEC50 in assay [1] is 7.84.

With `C[C@]12C=CC(=O)C=C1CC[C@@H]1[C@@H]2[C@@H](O)C[C@@]2(C)[C@H]1C[C@H]1O[C@@H](c3sccc3F)O[C@]12C(=O)CO` [Compound 53a], the pEC50 in assay [1] is 9.05.

For `C[C@@H](c1ccccc1)[C@@H]1O[C@@H]2C[C@H]3[C@@H]4C[C@H](F)C5=CC(=O)C=C[C@]5(C)[C@@]4(F)[C@@H](O)C[C@]3(C)[C@]2(C(=O)CO)O1` [Compound 50], the pEC50 in assay [1] is 7.64.

For `Cn1nccc1[C@@H]1O[C@@H]2C[C@H]3[C@@H]4CCC5=CC(=O)C=C[C@]5(C)[C@H]4[C@@H](O)C[C@]3(C)[C@]2(C(=O)CO)O1` [Compound 4], the pEC50 in assay [1] was 7.66.

For `C[C@]12C=CC(=O)C=C1[C@@H](F)C[C@H]1[C@@H]3C[C@H]4O[C@@H](c5cc6c(s5)CCCC6)O[C@@]4(C(=O)CO)[C@@]3(C)C[C@H](O)[C@@]12F` [Compound 43], the pEC50 in assay [1] was 8.43.

For the molecule `C[C@]12C=CC(=O)C=C1CC[C@@H]1[C@@H]2[C@@H](O)C[C@@]2(C)[C@H]1C[C@H]1O[C@@H](C3CCC3)O[C@]12C(=O)CO` [Compound 85], the pEC50 in assay [1] was 8.31.

Regarding `Cc1nn[nH]c1-c1ccc([C@@H]2O[C@@H]3C[C@H]4[C@@H]5CCC6=CC(=O)C=C[C@]6(C)[C@H]5[C@@H](O)C[C@]4(C)[C@]3(C(=O)CO)O2)cc1` [Compound 1], the pEC50 in assay [1] is 7.65.

As for `C[C@]12C=CC(=O)C=C1CC[C@H]1[C@@H]3C[C@H]4O[C@@H](c5ccccc5)O[C@@]4(C(=O)CO)[C@@]3(C)C[C@H](O)[C@@]12F` [Compound 8], the pEC50 in assay [1] was 8.96.

On to `C[C@]12C=CC(=O)C=C1[C@@H](F)C[C@H]1[C@@H]3C[C@H]4O[C@@H](c5sccc5F)O[C@@]4(C(=O)CO)[C@@]3(C)C[C@H](O)[C@@]12F` [Compound 30a], for which the pEC50 in assay [1] is 9.36.

As to `C[C@]12C=CC(=O)C=C1CC[C@@H]1[C@@H]2[C@@H](O)C[C@@]2(C)[C@H]1C[C@H]1O[C@@H](c3ccc(Cn4ccnn4)cc3)O[C@]12C(=O)CO` [Compound 2], in assay [1], the pEC50 is 7.77.

By EC50 is commonly meant the concentration that produces a half-maximal response.
